# Results published in patent US20120022040A1, “ANTIMICROBIALS” (priority 2008, published 2012).
# How the values were obtained:
# [1] = test system: PA 27853; assay: IC50 determination (XlFit dose response model 200); type: cell-based; details: Pseudomonas aeruginosa, average of 3 replicates
# Protocol: (§1) Compounds (1), (2), and (3) were tested to determine IC50 values. IC50 was determined using XlFit add-in using dose response model 200. The average of 3 replicates is presented for each compound in Table 2.
# [2] = test system: EC 25922; assay: IC50 determination (XlFit dose response model 200); type: cell-based; details: Escherichia coli, average of 3 replicates
# Protocol: as §1
# [3] = test system: SA 29213; assay: IC50 determination (XlFit dose response model 200); type: cell-based; details: Staphylococcus aureus, average of 3 replicates
# Protocol: as §1
# [4] = test system: VSE 6569; assay: IC50 determination (XlFit dose response model 200); type: cell-based, Vancomycin-sensitive enterococci faecium; details: average of 3 replicates
# Protocol: as §1
# [5] = test system: VSE 49452; assay: IC50 determination (XlFit dose response model 200); type: cell-based, Vancomycin-sensitive enterococci faecium; details: average of 3 replicates
# Protocol: as §1
# [6] = test system: VSE 6569; assay: MIC90 determination by serial dilution; type: cell-based, Vancomycin-sensitive enterococci faecium; details: dilution series from the Max Conc.
# Protocol: (§2) Compounds (1), (2), and (3) were tested to determine MIC90 values.
# (§3) Rules for determining MIC values: Each extract has a starting concentration which is diluted 7 times for a total of 8 dilutions. The MIC is the lowest dilution without growth. Each serial dilution is repeated three times for three identical dilutions. For reporting the results, the following rules were used. Inconsistent values were thrown out. For instance, the MIC value reported for an extract with MIC readings of 4, 4, and 2 would be four (the 2 is thrown out). If the readings are all different and in series like 2, 4, and 8, the median MIC value of 4 would be reported. If the three values are all different and not in series, an error is reported. Besides the three identical dilutions at the same starting concentration, each extract has dilutions starting at three different concentrations: 64, 4, and 0.25 μg/mL. Each extract therefore has 3 identical dilution series at 3 different starting concentrations—a total of 24 dilutions. The dilutions overlap which can result in a disagreement in MIC values for two different starting dilutions. Since a small amount of error is introduced with each dilution, the MIC readings with the fewest dilutions are selected as the correct MIC values.
# (§4) Abbreviations: MRSA=methicillin-resistant Staphylococcus aureus; SA=Staphylococcus aureus; PA=Pseudomonas aeruginosa; Kleb=Klebsiella pneumonia; EC=Escherichia coli; VSE=Vancomycin-sensitive enterococci faecium.
# [7] = test system: VSE 49452; assay: MIC90 determination by serial dilution; type: cell-based, Vancomycin-sensitive enterococci faecium; details: dilution series from the Max Conc.
# Protocol: as §2, §3, §4
# [8] = test system: MRSA 43300; assay: IC50 determination (XlFit dose response model 200); type: cell-based, methicillin-resistant Staphylococcus aureus; details: Staphylococcus aureus, average of 3 replicates
# Protocol: as §1
# [9] = test system: Kleb 4352; assay: IC50 determination (XlFit dose response model 200); type: cell-based, Klebsiella pneumonia; details: Klebsiella pneumoniae, average of 3 replicates
# Protocol: as §1
# [10] = test system: MRSA 43300; assay: MIC90 determination by serial dilution; type: cell-based, methicillin-resistant Staphylococcus aureus; details: Staphylococcus aureus, dilution series from the Max Conc.
# Protocol: as §2, §3, §4
# [11] = test system: Kleb 4352; assay: MIC90 determination by serial dilution; type: cell-based, Klebsiella pneumonia; details: Klebsiella pneumoniae, dilution series from the Max Conc.
# Protocol: as §2, §3, §4
# [12] = test system: PA 27853; assay: MIC90 determination by serial dilution; type: cell-based; details: Pseudomonas aeruginosa, dilution series from the Max Conc.
# Protocol: as §2, §3, §4
# [13] = test system: EC 25922; assay: MIC90 determination by serial dilution; type: cell-based; details: Escherichia coli, dilution series from the Max Conc.
# Protocol: as §2, §3, §4
# [14] = test system: SA 29213; assay: MIC90 determination by serial dilution; type: cell-based; details: Staphylococcus aureus, dilution series from the Max Conc.
# Protocol: as §2, §3, §4
compound,measurement,setting,value
"CCC(C)(C)C(=O)C(=O)N1CCCC[C@H]1C(=O)O[C@H](CCc1ccc(OC)c(OC)c1)c1cccc(OCCNC(=O)c2cccc(NC(=O)[C@@H]3C[C@H](SC4=C(C(=O)O)N5C(=O)[C@H]([C@@H](C)O)[C@H]5[C@H]4C)CN3)c2)c1 [(1), (4R,5S,6S)-3-((3S,5S)-5-(3-(2-(3-((R)-3-(3,4-dimethoxyphenyl)-1-((S)-1-(3,3-dimethyl-2-oxopentanoyl)piperidine-2-carbonyloxy)propyl)phenoxy)ethylcarbamoyl)phenylcarbamoyl)pyrrolidin-3-ylthio)-6-((R)-1-hydroxyethyl)-4-methyl-7-oxo-1-azabicyclo[3.2.0]hept-2-ene-2-carboxylic acid]",IC50,[1],> 64 µg/mL
same,IC50,[2],> 64 µg/mL
same,IC50,[3],0.942 µg/mL
same,IC50,[4],15.2 µg/mL
same,IC50,[5],6.91 µg/mL
same,MIC90,[6],64 µg/mL
same,MIC90,[7],16 µg/mL
same,IC50,[8],0.265 µg/mL
same,IC50,[9],> 64 µg/mL
same,MIC90,[10],8 µg/mL
same,MIC90,[11],> 64 µg/mL
same,MIC90,[12],> 64 µg/mL
same,MIC90,[13],> 64 µg/mL
same,MIC90,[14],2 µg/mL
"CCC(C)(C)C(=O)C(=O)N1CCCC[C@H]1C(=O)O[C@H](CCc1ccc(OC)c(OC)c1)c1cccc(OCC(=O)NCCCCCN2C[C@@H](SC3=C(C(=O)O)N4C(=O)[C@H]([C@@H](C)O)[C@H]4[C@H]3C)C[C@H]2C(=O)N(C)C)c1 [(2), (4R,5S,6S)-3-((3S,5S)-1-(5-(2-(3-((R)-3-(3,4-dimethoxyphenyl)-1-((S)-1-(3,3-dimethyl-2-oxopentanoyl)piperidine-2-carbonyloxy)propyl)phenoxy)acetamido)pentyl)-5-(dimethylcarbamoyl)pyrrolidin-3-ylthio)-6-((R)-1-hydroxyethyl)-4-methyl-7-oxo-1-azabicyclo[3.2.0]hept-2-ene-2-carboxylic acid]",IC50,[1],> 64 µg/mL
same,IC50,[2],> 64 µg/mL
same,IC50,[3],0.871 µg/mL
same,IC50,[4],7.23 µg/mL
same,IC50,[5],1.6 µg/mL
same,MIC90,[6],32 µg/mL
same,MIC90,[7],16 µg/mL
same,IC50,[8],0.17 µg/mL
same,IC50,[9],> 64 µg/mL
same,MIC90,[10],8 µg/mL
same,MIC90,[11],> 64 µg/mL
same,MIC90,[12],> 64 µg/mL
same,MIC90,[13],> 64 µg/mL
same,MIC90,[14],2 µg/mL
NCC[C@H](O)C(=O)N[C@@H]1C[C@H](N)[C@@H](O[C@H]2O[C@H](CN)[C@@H](O)[C@H](O)[C@H]2O)[C@H](O)[C@H]1O[C@H]1O[C@H](CO)[C@@H](O)[C@H](N)[C@H]1O [Amikacin],IC50,[1],0.274 µg/mL
same,MIC90,[12],1 µg/mL
O=C(N[C@H](CO)[C@H](O)c1ccc([N+](=O)[O-])cc1)C(Cl)Cl [Chloramphenicol],IC50,[1],> 64 µg/mL
same,IC50,[2],< 2 µg/mL
same,IC50,[3],> 64 µg/mL
same,IC50,[4],< 2 µg/mL
same,IC50,[5],< 2 µg/mL
same,MIC90,[6],≤ 2 µg/mL
same,MIC90,[7],4 µg/mL
same,IC50,[8],< 2 µg/mL
same,IC50,[9],> 64 µg/mL
same,MIC90,[10],4 µg/mL
same,MIC90,[11],≤ 2 µg/mL
same,MIC90,[12],> 64 µg/mL
same,MIC90,[13],8 µg/mL
same,MIC90,[14],8 µg/mL
C[C@H]1c2cccc(O)c2C(=O)C2=C(O)[C@]3(O)C(=O)C(C(N)=O)=C(O)[C@@H](N(C)C)[C@@H]3[C@@H](O)[C@@H]21 [Doxycycline],IC50,[1],6.3 µg/mL
same,MIC90,[12],32 µg/mL
CC[C@H]1OC(=O)[C@H](C)[C@@H](O[C@H]2C[C@@](C)(OC)[C@@H](O)[C@H](C)O2)[C@H](C)[C@@H](O[C@@H]2O[C@H](C)C[C@H](N(C)C)[C@H]2O)[C@](C)(O)C[C@@H](C)C(=O)[C@H](C)[C@@H](O)[C@]1(C)O [Erythromycin],IC50,[1],> 64 µg/mL
same,IC50,[2],20.7 µg/mL
same,IC50,[3],< 2 µg/mL
same,IC50,[4],2.75 µg/mL
same,IC50,[5],< 2 µg/mL
same,MIC90,[6],8 µg/mL
same,MIC90,[7],≤ 2 µg/mL
same,IC50,[8],> 64 µg/mL
same,IC50,[9],2.21 µg/mL
same,MIC90,[10],> 64 µg/mL
same,MIC90,[11],8 µg/mL
same,MIC90,[12],> 64 µg/mL
same,MIC90,[13],64 µg/mL
same,MIC90,[14],≤ 2 µg/mL
"C[C@@H](O)[C@H]1C(=O)N2C(C(=O)O)=C(S[C@@H]3CN[C@H](C(=O)N(C)C)C3)[C@H](C)[C@H]12 [Meropenem, meropenem, reference compound]",IC50,[1],0.945 µg/mL
same,IC50,[2],0.122 µg/mL
same,IC50,[3],0.126 µg/mL
same,IC50,[4],11.8 µg/mL
same,IC50,[5],6.74 µg/mL
same,MIC90,[6],32 µg/mL
same,MIC90,[7],16 µg/mL
same,IC50,[8],0.037 µg/mL
same,IC50,[9],0.121 µg/mL
same,MIC90,[10],4 µg/mL
same,MIC90,[11],0.12 µg/mL
same,MIC90,[12],1 µg/mL
same,MIC90,[13],0.06 µg/mL
same,MIC90,[14],0.25 µg/mL
O=C1CN(/N=C/c2ccc([N+](=O)[O-])o2)C(=O)N1 [Nitrofurantoin],IC50,[1],> 32 µg/mL
same,IC50,[2],3.27 µg/mL
same,IC50,[3],7.71 µg/mL
same,IC50,[4],2.87 µg/mL
same,IC50,[5],3.57 µg/mL
same,MIC90,[6],32 µg/mL
same,MIC90,[7],8 µg/mL
same,IC50,[8],1.83 µg/mL
same,IC50,[9],3.68 µg/mL
same,MIC90,[10],8 µg/mL
same,MIC90,[11],16 µg/mL
same,MIC90,[12],> 32 µg/mL
same,MIC90,[13],8 µg/mL
same,MIC90,[14],16 µg/mL
